Reference: US20250092056A1, “URACIL DERIVATIVES HAVING VIRUS REPLICATION INHIBITORY ACTIVITY AND PHARMACEUTICAL COMPOSITION COMPRISING THE SAME” (Shionogi & Co., Ltd., priority 2022, published 2025)

target: Recombinant SARS-CoV-2 3CL Protease (Severe acute respiratory syndrome coronavirus 2 (2019-nCoV) (SARS-CoV-2), UniProt P0DTD1); experiment: biochemical; assay type: biochemical; conditions: 50% SARS-CoV-2 3CL protease inhibitory concentration; read-out: IC50

`N#CCn1c(N2CC(O)(C3CC3)C2)c(-c2ccc(F)c(Cl)c2)c(=O)n(-c2cncc(C(F)F)n2)c1=O` [Compound I-381] and `CC1(O)CN(c2c(-c3ccc(F)c(Cl)c3)c(=O)n(-c3cncc(C(F)F)n3)c(=O)n2CC#N)C1` [Compound I-382] cannot be ordered by IC50: < 0.01 µM for the first, < 0.01 µM for the second.

`N#CCn1c(N2CCC(F)(F)CC2)c(-c2ccc(F)c(Cl)c2)c(=O)n(-c2cncc(C#N)c2)c1=O` [Compound I-403] and `N#CCn1c(N2CCC(C(F)F)CC2)c(-c2ccc(F)c(Cl)c2)c(=O)n(-c2cncc(C#N)c2)c1=O` [Compound I-404] cannot be ordered by IC50: < 0.01 µM for the first, < 0.01 µM for the second.

First: Cc1cnnc(-n2c(=O)c(Cc3cc(F)c(F)c(F)c3)c(N3CC4(CCOC4)C3)n(CC#N)c2=O)c1 [Compound I-036]
Second: Cc1cncc(-n2c(=O)c(Cc3cc(F)c(F)c(F)c3)c(N3CCC(O)(C(F)(F)F)CC3)n(CC#N)c2=O)c1 [Compound I-116]
The IC50 of the first is higher: > 0.1 µM for the first, < 0.01 µM for the second. The second is the more potent here.

`Cc1coc(-c2c(-c3ccc(F)c(Cl)c3)c(=O)n(-c3cncc(Cl)c3)c(=O)n2CC#N)n1` [Compound I-360] and `Cc1c(-c2ccc(F)c(Cl)c2)c(=O)n(-c2cncc(Cl)c2)c(=O)n1CC#N` [Compound I-299] cannot be ordered by IC50: < 0.01 µM for the first, < 0.01 µM for the second.

First: C#CCn1c(CC(C)(C)F)c(-c2ccc(F)c(Cl)c2)c(=O)n(-c2cncc(Cl)c2)c1=O [Compound I-440]
Second: N#CCn1c(OC2CC(F)(F)C2)c(-c2ccc(F)c(Cl)c2)c(=O)n(-c2cncc(Cl)c2)c1=O [Compound I-245]
The IC50 of the first is lower: < 0.01 µM for the first, 0.01 to 0.1 µM for the second.

`N#CCn1c(CCC2(O)CCC2)c(-c2ccc(F)c(F)c2)c(=O)n(-c2cncc(Cl)c2)c1=O` [Compound I-436] and `N#CCn1c(N2CCC(C(F)F)CC2)c(-c2ccc(F)c(F)c2)c(=O)n(-c2cncc(Cl)c2)c1=O` [Compound I-397] cannot be ordered by IC50: < 0.01 µM for the first, < 0.01 µM for the second.

`N#CCn1c(N2CC(N3CCOCC3)C2)c(-c2ccc(F)c(Cl)c2)c(=O)n(-c2cncc(Cl)c2)c1=O` [Compound I-085] and `N#CCn1c(N2C[C@H]3C[C@@H]2CN3)c(-c2ccc(F)c(Cl)c2)c(=O)n(-c2cncc(Cl)c2)c1=O` [Compound I-146] cannot be ordered by IC50: < 0.01 µM for the first, < 0.01 µM for the second.

`Cc1cncc(-n2c(=O)c(Cc3cc(F)c(F)c(F)c3)c(N3CCN(C)C(=O)C3)n(CC#N)c2=O)c1` [Compound I-098] and `Cc1cncc(-n2c(=O)c(Cc3cc(F)c(F)c(F)c3)c(N3CCC(S(N)(=O)=O)C3)n(CC#N)c2=O)c1` (racemic) [Compound I-108] cannot be ordered by IC50: < 0.01 µM for the first, < 0.01 µM for the second.

`C[C@@H](C#N)n1c(N2CC[C@@](O)(C(F)F)C2)c(-c2ccc(F)c(F)c2)c(=O)n(-c2cncc(Cl)c2)c1=O` (single isomer, unassigned) [Compound I-419] and `N#CCn1c(N2CC(O)(C(F)F)C2)c(-c2ccc(F)c(Cl)c2)c(=O)n(-c2cncc(OCF)n2)c1=O` [Compound I-411] cannot be ordered by IC50: < 0.01 µM for the first, < 0.01 µM for the second.

Compared with `N#CCn1c(N2CC3(C2)CC(F)(F)C3)c(-c2ccc(F)c(Cl)c2)c(=O)n(-c2cc(C(F)(F)F)cnn2)c1=O` [Compound I-229], `Cc1cncc(-n2c(=O)c(-c3ccc(F)c(Cl)c3)c(/C=C/c3ccc(C(F)(F)F)cc3)n(CC#N)c2=O)c1` [Compound I-212] is higher in IC50: < 0.01 µM for the first, 0.01 to 0.1 µM for the second. The first is the more potent here.

First: CN1C[C@@H]2CN(c3c(Cc4cc(F)c(F)c(F)c4)c(=O)n(Cc4ncn(C)n4)c(=O)n3CC#N)C[C@@H]2C1 [Compound I-003]
Second: N#CCc1c(N2Cc3ccccc3C2)n(Cc2cc(F)c(F)c(F)c2)c(=O)n(-c2cncc(Cl)c2)c1=O [Compound I-185]
The IC50 of the first is higher: > 0.1 µM for the first, 0.027 µM for the second.

First: Cc1ccc(-c2c(-c3ccc(F)c(Cl)c3)c(=O)n(-c3cncc(C)c3)c(=O)n2CC#N)cc1 [Compound I-270]
Second: Cc1cncc(-n2c(=O)c(Cc3cc(F)c(F)c(F)c3)c(-c3ccc(C)c(C)c3)n(C(C#N)C(=O)O)c2=O)c1 (racemic) [Compound I-056]
The IC50 of the first is lower: < 0.01 µM for the first, 0.01 to 0.1 µM for the second.

First: N#CCn1c(N2CC3(CCOC3)C2)c(-c2ccccc2)c(=O)n(-c2cncc(Cl)c2)c1=O [Compound I-171]
Second: Cc1cc(-n2c(=O)c(-c3ccc(F)c(Cl)c3)c(C#CC3CC3)n(CC#N)c2=O)cc(=O)[nH]1 [Compound I-184]
The IC50 of the first is lower: < 0.01 µM for the first, > 0.1 µM for the second. The first is the more potent here.

system: SARS-CoV-2; experiment: Cytopathic effect (CPE) suppression effect confirmation test using HEK293T/ACE2-TMPRSS2 cells; assay type: cell-based; conditions: Severe acute respiratory syndrome coronavirus 2, HEK-293T, 72 h, read-out: EC50 (50% SARS-CoV-2 infected cell death inhibitory concentration), HEK293T/ACE2-TMPRSS2 cells, CPE suppression, CellTiter-Glo 2.0 after 3 days culture

With `N#CCc1c(N2Cc3ccccc3C2)n(Cc2cc(F)c(F)c(F)c2)c(=O)n(-c2cncc(Cl)c2)c1=O` [Compound I-185] the EC50 was 0.0405 µM.

same assay, conditions: Severe acute respiratory syndrome coronavirus 2, HEK-293T, 72 h, read-out: EC50 (50% SARS-CoV-2 infected cell death inhibitory concentration), class, HEK293T/ACE2-TMPRSS2 cells, CPE suppression, CellTiter-Glo 2.0 after 3 days culture

Compared with `Cc1cnnc(-n2c(=O)c(Cc3cc(F)c(F)c(F)c3)c(N3CC4(CCOC4)C3)n(CC#N)c2=O)c1` [Compound I-036], `Cc1cncc(-n2c(=O)c(Cc3cc(F)c(F)c(F)c3)c(N3CCC(O)(C(F)(F)F)CC3)n(CC#N)c2=O)c1` [Compound I-116] is lower in EC50: 0.1 to 1 µM for the first, < 0.1 µM for the second.

First: N#CCn1c(N2CC(N3CCOCC3)C2)c(-c2ccc(F)c(Cl)c2)c(=O)n(-c2cncc(Cl)c2)c1=O [Compound I-085]
Second: N#CCn1c(N2C[C@H]3C[C@@H]2CN3)c(-c2ccc(F)c(Cl)c2)c(=O)n(-c2cncc(Cl)c2)c1=O [Compound I-146]
The EC50 of the first is lower: < 0.1 µM for the first, 0.1 to 1 µM for the second.

First: Cc1cncc(-n2c(=O)c(Cc3cc(F)c(F)c(F)c3)c(N3CCN(C)C(=O)C3)n(CC#N)c2=O)c1 [Compound I-098]
Second: Cc1cncc(-n2c(=O)c(Cc3cc(F)c(F)c(F)c3)c(N3CCC(S(N)(=O)=O)C3)n(CC#N)c2=O)c1 (racemic) [Compound I-108]
The EC50 of the first is lower: < 0.1 µM for the first, 0.1 to 1 µM for the second. The first is the more potent here.

First: CN1C[C@@H]2CN(c3c(Cc4cc(F)c(F)c(F)c4)c(=O)n(Cc4ncn(C)n4)c(=O)n3CC#N)C[C@@H]2C1 [Compound I-003]
Second: Cc1cc(-n2c(=O)c(-c3ccc(F)c(Cl)c3)c(C#CC3CC3)n(CC#N)c2=O)cc(=O)[nH]1 [Compound I-184]
The EC50 of the first is higher: 1 to 5 µM for the first, 0.1 to 1 µM for the second.

For `N#CCn1c(N2CC3(CCOC3)C2)c(-c2ccccc2)c(=O)n(-c2cncc(Cl)c2)c1=O` [Compound I-171], the EC50 was < 0.1 µM.

same assay, conditions: Severe acute respiratory syndrome coronavirus 2, HEK-293T, 72 h; HEK293T/ACE2-TMPRSS2 cells, CPE suppression, CellTiter-Glo 2.0 after 3 days culture; read-out: EC50 (50% SARS-CoV-2 infected cell death inhibitory concentration), class

For `Cc1cncc(-n2c(=O)c(Cc3cc(F)c(F)c(F)c3)c(-c3ccc(C)c(C)c3)n(C(C#N)C(=O)O)c2=O)c1` (racemic) [Compound I-056], the EC50 was < 0.1 µM.

same assay, conditions: Severe acute respiratory syndrome coronavirus 2, HEK-293T; 50% SARS-CoV-2 infected cell death inhibitory concentration; HEK293T/ACE2-TMPRSS2 cells; read-out: EC50

`N#CCn1c(N2CC(O)(C3CC3)C2)c(-c2ccc(F)c(Cl)c2)c(=O)n(-c2cncc(C(F)F)n2)c1=O` [Compound I-381] and `CC1(O)CN(c2c(-c3ccc(F)c(Cl)c3)c(=O)n(-c3cncc(C(F)F)n3)c(=O)n2CC#N)C1` [Compound I-382] cannot be ordered by EC50: < 0.1 µM for the first, < 0.1 µM for the second.

`N#CCn1c(N2CCC(F)(F)CC2)c(-c2ccc(F)c(Cl)c2)c(=O)n(-c2cncc(C#N)c2)c1=O` [Compound I-403] and `N#CCn1c(N2CCC(C(F)F)CC2)c(-c2ccc(F)c(Cl)c2)c(=O)n(-c2cncc(C#N)c2)c1=O` [Compound I-404] cannot be ordered by EC50: < 0.1 µM for the first, < 0.1 µM for the second.

`Cc1coc(-c2c(-c3ccc(F)c(Cl)c3)c(=O)n(-c3cncc(Cl)c3)c(=O)n2CC#N)n1` [Compound I-360] and `Cc1c(-c2ccc(F)c(Cl)c2)c(=O)n(-c2cncc(Cl)c2)c(=O)n1CC#N` [Compound I-299] cannot be ordered by EC50: < 0.1 µM for the first, < 0.1 µM for the second.

`C#CCn1c(CC(C)(C)F)c(-c2ccc(F)c(Cl)c2)c(=O)n(-c2cncc(Cl)c2)c1=O` [Compound I-440] and `N#CCn1c(OC2CC(F)(F)C2)c(-c2ccc(F)c(Cl)c2)c(=O)n(-c2cncc(Cl)c2)c1=O` [Compound I-245] cannot be ordered by EC50: < 0.1 µM for the first, < 0.1 µM for the second.

`N#CCn1c(CCC2(O)CCC2)c(-c2ccc(F)c(F)c2)c(=O)n(-c2cncc(Cl)c2)c1=O` [Compound I-436] and `N#CCn1c(N2CCC(C(F)F)CC2)c(-c2ccc(F)c(F)c2)c(=O)n(-c2cncc(Cl)c2)c1=O` [Compound I-397] cannot be ordered by EC50: < 0.1 µM for the first, < 0.1 µM for the second.

`C[C@@H](C#N)n1c(N2CC[C@@](O)(C(F)F)C2)c(-c2ccc(F)c(F)c2)c(=O)n(-c2cncc(Cl)c2)c1=O` (single isomer, unassigned) [Compound I-419] and `N#CCn1c(N2CC(O)(C(F)F)C2)c(-c2ccc(F)c(Cl)c2)c(=O)n(-c2cncc(OCF)n2)c1=O` [Compound I-411] cannot be ordered by EC50: < 0.1 µM for the first, < 0.1 µM for the second.

Compared with `N#CCn1c(N2CC3(C2)CC(F)(F)C3)c(-c2ccc(F)c(Cl)c2)c(=O)n(-c2cc(C(F)(F)F)cnn2)c1=O` [Compound I-229], `Cc1cncc(-n2c(=O)c(-c3ccc(F)c(Cl)c3)c(/C=C/c3ccc(C(F)(F)F)cc3)n(CC#N)c2=O)c1` [Compound I-212] is higher in EC50: < 0.1 µM for the first, 0.1 to 1 µM for the second.

`Cc1ccc(-c2c(-c3ccc(F)c(Cl)c3)c(=O)n(-c3cncc(C)c3)c(=O)n2CC#N)cc1` [Compound I-270] was tested, and the EC50 was < 0.1 µM.
